In PubChem BioAssay (NCI) one finds GI50 and TGI data, which are given here for nine compounds.

Among the test systems are A498 renal; BT-549 breast; HT29 colon; KM12 colon; SF-539 CNS; SNB-19 CNS; SNB-75 CNS; TK-10 renal; OVCAR-4 ovarian; EKVX NSCLC.
Holding throughout (experiment): NCI tumour cell line growth inhibition, 48 h

Structures are written as SMILES.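 Dose response: 5 concentrations. Exposure: 48 h. Format: 96-well plates. Endpoint: linear interpolation; highest concentration if not reached. Here, GI50 denotes the concentration required for 50% inhibition of growth. TGI denotes the concentration required for complete inhibition of growth.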

On to `CCOc1nc(-c2ccccc2)cc2c(O)c(-c3nnco3)[nH]c(=O)c12`, for which the GI50 in the experiment with A498 renal was 2.56 µM; with BT-549 breast, 3.23 µM; with HT29 colon, over 100 µM; in the experiment on KM12 colon it was 4.14 µM; in the experiment with SF-539 CNS, 4.39 µM; with SNB-19 CNS, 6.13 µM. Moreover, the values for the GI50 in the experiment on SNB-75 CNS and in the experiment with TK-10 renal were 1.92 µM and 4.59 µM, respectively. The TGI in the experiment on A498 renal is 58 µM; in the experiment with BT-549 breast, over 100 µM; in the experiment on HT29 colon, over 100 µM; in the experiment on KM12 colon, over 100 µM; in the experiment with SF-539 CNS it was over 47.1 µM; with SNB-19 CNS, over 62.4 µM. Moreover, the TGI was determined as 8.99 µM in the experiment with SNB-75 CNS and 35.2 µM with TK-10 renal.

For the compound `CC/C(=C(/c1ccc(OCCN(C)C)cc1)c1ccc(OC(=O)CCCCC(=O)c2c(C)[nH]c(/C=C3\N=C(c4ccc[nH]4)C=C3OC)c2C)cc1)c1ccccc1`, the GI50 was 12.8 µM with A498 renal; 3.57 µM with BT-549 breast; 2.99 µM in the experiment with HT29 colon; 3.75 µM with KM12 colon; 4.39 µM with OVCAR-4 ovarian; 7.32 µM with SF-539 CNS. Besides, the GI50 in the experiment on SNB-19 CNS is 12.8 µM; with SNB-75 CNS, 8.17 µM; in the experiment on TK-10 renal, 12.8 µM. Moreover, the TGI is 26.1 µM in the experiment with A498 renal; 17 µM with BT-549 breast; 14.7 µM in the experiment on HT29 colon; 14.3 µM with KM12 colon; 22.3 µM in the experiment with OVCAR-4 ovarian; 20.6 µM in the experiment with SF-539 CNS. Moreover, the TGI with SNB-19 CNS came to 27.4 µM; with SNB-75 CNS, 23.2 µM; in the experiment on TK-10 renal, 25.4 µM.

Consider `CC(C)=C[C@@H]1C[C@H](C)[C@H]2CC[C@H](C)C3=C2[C@](O)(OC3=O)[C@]1(C)O`, for which the GI50 with BT-549 breast, in the experiment with EKVX NSCLC, with HT29 colon, in the experiment on KM12 colon, in the experiment with OVCAR-4 ovarian and with SF-539 CNS was over 100 µM throughout. Also, the GI50 in the experiment on SNB-19 CNS, with SNB-75 CNS and with TK-10 renal was over 100 µM each time. In addition, the TGI with BT-549 breast, in the experiment with EKVX NSCLC, in the experiment on HT29 colon, in the experiment with KM12 colon, in the experiment on OVCAR-4 ovarian and in the experiment on SF-539 CNS was over 100 µM throughout. Also, the TGI in the experiment with SNB-19 CNS, with SNB-75 CNS and with TK-10 renal was over 100 µM each time.

Take `O=C(Nc1ccc(OS(=O)(=O)c2ccccc2)cc1)C12CC3CC(CC(C3)C1)C2`: the GI50 in the experiment with A498 renal was 2.04 µM; with BT-549 breast, 3.24 µM; with HT29 colon, 0.403 µM; with KM12 colon, 2.1 µM; in the experiment with OVCAR-4 ovarian, 8.38 µM; with SF-539 CNS, 0.965 µM. In addition, the GI50 in the experiment with SNB-19 CNS was over 100 µM; with SNB-75 CNS, 7.16 µM; in the experiment on TK-10 renal, over 100 µM. Also, the TGI is 48.7 µM with A498 renal; over 100 µM in the experiment with BT-549 breast; 3.69 µM with HT29 colon; over 100 µM with KM12 colon; over 100 µM in the experiment with OVCAR-4 ovarian; over 100 µM in the experiment on SF-539 CNS. Also, the TGI in the experiment on SNB-19 CNS, with SNB-75 CNS and with TK-10 renal was over 100 µM in each case.

With `O=C1NC(=Nc2ccccc2)S/C1=C\c1ccc2ncccc2c1`, the TGI was over 18.4 µM with A498 renal; over 25 µM with BT-549 breast; over 25 µM with HT29 colon; over 25 µM with KM12 colon; over 25 µM in the experiment with OVCAR-4 ovarian; over 25 µM in the experiment with SF-539 CNS. Also, the TGI with SNB-19 CNS, with SNB-75 CNS and in the experiment with TK-10 renal was over 25 µM throughout. Besides, the GI50 with BT-549 breast is over 25 µM; in the experiment with HT29 colon, over 25 µM; with KM12 colon it was 1.62 µM; with OVCAR-4 ovarian it was over 25 µM; in the experiment with SF-539 CNS, over 6.25 µM; with SNB-19 CNS, over 22.9 µM. For the same compound, the GI50 in the experiment on TK-10 renal is over 25 µM.

For the compound `CCOC(=O)/C=C/C(C(=O)/C=C/c1ccc(OC2CCCCO2)c(OC)c1)=C(O)\C=C\c1ccc(OC2CCCCO2)c(OC)c1` (configuration not stated), the GI50 is 18.3 µM in the experiment on A498 renal; 5.18 µM with BT-549 breast; 10.7 µM in the experiment with EKVX NSCLC; 1.94 µM in the experiment on HT29 colon; 4.75 µM with KM12 colon; 20.3 µM in the experiment on SF-539 CNS. Moreover, the GI50 with SNB-19 CNS was 5.32 µM; in the experiment with TK-10 renal it was 2.84 µM. The TGI with A498 renal was 35.7 µM; in the experiment with BT-549 breast, 28.4 µM; in the experiment with EKVX NSCLC, over 100 µM; in the experiment with HT29 colon, 4.51 µM; in the experiment with KM12 colon, 19 µM; in the experiment with SF-539 CNS, 53.1 µM. Besides, the TGI in the experiment with SNB-19 CNS was found to be 25.2 µM; with TK-10 renal, 9.21 µM.

For the compound `Cn1cc(C2=C(c3ccc4ccccc4c3)C(=O)NC2=O)c2ccccc21`, the GI50 in the experiment on A498 renal was over 25 µM; in the experiment on BT-549 breast it was over 25 µM; in the experiment on HT29 colon, 9.87 µM; with KM12 colon, 12.5 µM; in the experiment with OVCAR-4 ovarian, over 25 µM; in the experiment with SF-539 CNS it was over 25 µM. In addition, the GI50 was over 25 µM in the experiment on SNB-19 CNS, 7.47 µM with SNB-75 CNS and over 25 µM with TK-10 renal. Also, the TGI in the experiment with A498 renal, in the experiment with BT-549 breast, in the experiment with HT29 colon, in the experiment with KM12 colon, in the experiment on OVCAR-4 ovarian and in the experiment with SF-539 CNS was over 25 µM in each case. Further, the TGI in the experiment on SNB-19 CNS, in the experiment with SNB-75 CNS and in the experiment on TK-10 renal was over 25 µM in each case.

For the compound `CCn1c(-c2cc(OC)cc(OC)c2)nc2c1C(=O)c1ccccc1C2=O`, the TGI with BT-549 breast, in the experiment with EKVX NSCLC, in the experiment with HT29 colon, in the experiment on KM12 colon, in the experiment on OVCAR-4 ovarian and in the experiment with SF-539 CNS was over 100 µM each time. In addition, the TGI with SNB-19 CNS, in the experiment with SNB-75 CNS and with TK-10 renal was over 100 µM throughout.

`CC(C)(C)C(=O)OCOP(=O)(OCOC(=O)C(C)(C)C)C1CCCN(O)C1=O` (configuration not stated): the GI50 in the experiment with BT-549 breast was 0.313 µM; with EKVX NSCLC, 0.657 µM; in the experiment with HT29 colon, 0.335 µM; with KM12 colon, 0.443 µM; in the experiment on OVCAR-4 ovarian, 0.508 µM; in the experiment with SF-539 CNS, 1.52 µM. The GI50 with SNB-19 CNS was 0.551 µM; in the experiment with SNB-75 CNS, 1.43 µM; in the experiment on TK-10 renal it was 0.537 µM. The TGI in the experiment with BT-549 breast came to 1.26 µM; with EKVX NSCLC, 12.5 µM; with HT29 colon, 8.53 µM; in the experiment with KM12 colon, 13.3 µM; in the experiment on OVCAR-4 ovarian, 59.7 µM; in the experiment on SF-539 CNS, 11.8 µM. Further, the TGI in the experiment with SNB-19 CNS amounted to 28.7 µM; in the experiment with SNB-75 CNS it was 28.6 µM; in the experiment on TK-10 renal it was 8.05 µM.
